Experimental data reported in US20190203409A1, “ANTIBACTERIAL REGENERATED CELLULOSIC FIBERS AND PROCESS OF PREPARATION THEREOF” (GRASIM INDUSTRIES LIMITED, priority 2016, published 2019).

Test system: S. Aureus
Experiment: AATCC 147-2013 antibacterial test
Assay type: cell-based
Settings: 0.5% concentration to weight of cellulose
Description: An antibacterial agent is used in Standard VSF or Modal or Lyocell manufacturing process to improve antibacterial performance of fiber. A small amount of chemical DDAC (i.e. 0.05-1% on weight of cellulose fiber) is infused by the way of: pouring or spraying or soaking or coating or padding or dipping and the like on the fiber during fiber manufacturing process and then fibers were dried and finally packed into the bales. The resultant fiber was then evaluated for antibacterial performance in external biological laboratory as per standard test methods.

In the case of `Oc1cc(Cl)ccc1Oc1ccc(Cl)cc1Cl` [Triclosan], the “antibacterial activity (in words)” value is reported as “did not demonstrate any antibacterial activity”.
